Laboratory results as given in PMC6054118, “In vivo study and thermodynamic investigation of two lanthanum complexes, La(dpp)3 and La(XT), for the treatment of bone resorption disorders” (Chemical Science, 2015).
“And” between values parts separate entries of the source, which are not always exact repeats. Identical values can stand only once. Like-named read-outs stand apart in the source and are kept apart here. Blank lines part the entries; values can stand above or below the compound they belong to.

Legend:
[1] = parameters: method as in Cawthray et al. 37; settings: ITC, 37 °C, ref Cawthray et al. 37; cited from earlier work
[2] = isothermal titration calorimetry, binding to hydroxyapatite; settings: ITC
Protocol: ITC experiments in the presence of ligand (Hdpp or XT) were carried out in either piperazine (100 mM) pH 5 or HEPES (100 mM) pH 7.4. Titrations were performed by injecting consecutive 10 μL aliquots of ligand (2.5–80 mM) or metal ion/ligand solution (2.5/10 mM for Hdpp and 81/90 mM for XT) into the ITC cell (volume = 1.4 mL) containing hydroxyapatite (0.1–1.5 mM) suspension. Hydroxylapatite suspensions were prepared by adding the required amount of hydroxyapatite to the appropriately buffered solution followed by sonication for 5 minutes. The ITC cell was stirred continuously during the titration. Control experiments (heats of dilution) were performed by titration of ligand or metal ion/ligand solution into buffer containing no hydroxyapatite. Each ITC experiment was performed in triplicate (at least). The error associated with diffusion from the syringe during baseline equilibration, the first injection was only 5 μL, and the associated small heat was not included in the data analysis.

[3] = tissue and plasma distribution of lanthanum after multiple intravenous doses (ICP-MS); format: in vivo, SD rats; settings: for plasma levels after 5 days of treatment / La^3+ concentration in brain / La^3+ concentration in heart / La^3+ concentration in kidney / La^3+ concentration in spleen: IV 1 mg kg^–1 per day for 5 days; for plasma levels after 5 days of treatment: mean ± SD; for La^3+ concentration in brain / La^3+ concentration in heart / La^3+ concentration in kidney / La^3+ concentration in spleen: n = 6, mean ± SD; for plasma concentration, t=end, mean / plasma concentration, t=end, single animals: IV 1mg/kg/day, end of trial; for plasma concentration, t=end, mean: n=6, mean; for plasma concentration, t=end, single animals: value of each animal, 1 mg/kg/day
Protocol: (§1) Lanthanide concentration for both in vivo and in vitro studies were determined by ICP-MS analysis by the method reported previously.[30] In brief, samples were dried (vacuum centrifugation) and dissolved in conc. nitric acid (Optima) and slowly heated to 105 °C over 1 h and maintained at 105 °C for 24 h. Hydrogen peroxide (approximately 2 mL) was added and samples heated at 140 °C for 24 h. Samples were evaporated to dryness at 150 °C before redissolving in 3 mL of 10% nitric acid (with 10 ppm Rh) prior to analysis by ICP-MS.
(§2) Solutions of La(dpp)3 and La(XT) (1 mg mL^–1) were prepared in 10% DMSO and stored at 4 °C. Animals were administered with a dose of 1 mg kg^–1 once daily for 5 consecutive days by intravenous injection via jugular vein port. The animals were sacrificed on the day of the 5th dose and the spleen liver, kidney lungs, heart, brain and bones were collected. Blood samples (0.5 mL) were withdrawn at pre-dose and post-dose. The blood was centrifuged for 10 min at […] at room temperature to obtain the plasma. For organ homogenization, 1 g organ was added to 2 mL normal saline. Bones were cleaned manually of all soft flesh and sectioned into knee, middle, and hip parts using a ceramic blade, and lyophilized prior to normal acid digestion.

[4] = bone (femur) distribution of lanthanum after multiple doses; format: in vivo, SD rats; settings: 1 mg kg^–1 per day for 5 days, ANOVA p 0.006, 0.017, 0.004 (hip, mid, knee)
Protocol: as §1, §2

[5] = hydroxyapatite binding study (batch, La^3+ depletion in supernatant by ICP-MS); settings: pH 7.4, 37 °C, excess HAP
Protocol: as §1
All time points were run in triplicate. Samples containing 10 mg of hydroxyapatite (Sigma-Aldrich) were initially incubated and agitated (37 °C, 220 rpm) with 0.9 mL HEPES buffer (100 mM, pH 7.4) in 1.5 mL Eppendorfs for 24 hours. Stock solutions (1.0 mM) of La(dpp)3 and La(XT) were prepared from the premade complexes dissolved in HEPES buffer. At the outset of the experiment, 100 μL of either stock solution was added to a sample and incubated and agitated for a set time. When the time point was reached, the supernatant was carefully removed, taking care not to disturb the residual HAP, and filtered through a 22 micron frit. […] Samples containing La(dpp)3 were also analysed by UV-Vis spectroscopy to determine Hdpp concentration. […]

[6] = parameters: method as in PMID 23299719, PMID 11442371; settings: cited from earlier work; for pM (= –log[La^3+]): calculated at pH 7.4, 100 μM ligand, 10 μM metal
[7] = plasma clearance and pharmacokinetics after single intravenous dose; format: in vivo, SD rats
Protocol: as §1
(§3) Solutions of La(dpp)3 were prepared in 10% DMSO and the stability of the complex over time (7 days) monitored by spectrophotometric methods. The solution of La(dpp)3 was administered to the animals through cannulae implanted in their jugular veins (n = 6). The animals received a dose of 1 mg kg^–1 at time 0 h and blood samples (0.25 mL were withdrawn at pre-dose, 5, 10, 15, 30 min and 1, 2, 3, 4, 6, 10, 24, 48, 72, 96 and 144 h post-dose). The animals were sacrificed following the last time point and the spleen, liver, kidney, lungs, heart and brain were collected. Lanthanide concentrations were determined by ICP-MS analysis following acid digestion of the samples. The calibration curves were linear in the range of 0.1–100 ng mL^–1 and 1–50 ng mL^–1 in the organs and plasma; respectively. The plasma pharmacokinetic parameters were derived by non-compartmental analysis of plasma concentration-time profiles using Phoenix software (Ver. 1.3).

[8] = tissue distribution of lanthanum after single intravenous dose (ICP-MS); format: in vivo, SD rats; settings: single IV dose 1 mg kg^–1, last sampling point 144 h
Protocol: as §1, §3

MG-63 cells = tested on: MG-63 cells; parameters: method as in PMID 17992287, PMID 23299719, PMID 11442371; settings: earlier work of the authors, read-out: EC50 (cellular toxicity); cited from earlier work
[9] = thermodynamic stability of the complex
[10] = La^3+ in plasma, La(dpp)3 1 mg kg^–1 IV, SD rats, non-compartmental, n = 6, mean

Structure (SMILES): [La+3] [Free La^3+]
apparent K a (pH 5) [1]: 2.4 (±0.2) × 10^6 M^–1

Structure (SMILES): Cc1c([O-])c(=O)ccn1C.Cc1c([O-])c(=O)ccn1C.Cc1c([O-])c(=O)ccn1C.[La+3] [La(dpp)3]
lanthanum in plasma beyond 10 h ([7]; 1 mg kg^–1 IV, beyond 10 h): not detected | time until plasma lanthanum is back to pre-dose concentrations ([7]; 1 mg kg^–1 IV, pre-dose ∼15 ng mL^–1): ≤ 24 h | C 0 [7, 10]: 4973 ± 557 ng mL^–1 and 4973.09 ng mL^–1 | Cl [7, 10]: 77 mL h^–1 kg^–1 and 77.24 mL h^–1 kg^–1 | K el [7, 10]: 0.20 h^–1 | MRT [7, 10]: 3.46 h | T 1/2 [7, 10]: 3.61 h | V ss [7, 10]: 265 mL kg^–1 and 265.41 mL kg^–1 | plasma lanthanum level as % of C0 ([7]; within 6 hours after 1 mg kg^–1 IV): approximately 10% | La^3+ concentration in brain [8]: 15 ± 12 ng g^–1 | La^3+ concentration in heart [8]: 20 ± 7 ng g^–1 | La^3+ concentration in kidney [8]: 108 ± 95 ng g^–1 | La^3+ concentration in liver [8]: 741 ± 109 ng g^–1 | La^3+ concentration in spleen [8]: 1164 ± 350 ng g^–1 | plasma levels after 5 days of treatment [3]: 5517 ± 1188 ng g^–1 | La^3+ concentration in brain [3]: 101 ± 60 ng g^–1 | La^3+ concentration in heart [3]: 635 ± 178 ng g^–1 | La^3+ concentration in kidney [3]: 992 ± 321 ng g^–1 | La^3+ concentration in spleen [3]: 7817 ± 3211 ng g^–1 | plasma concentration, t=end, mean [3]: 5517.0 ng/g weight | plasma concentration, t=end, single animals [3]: 4971.8 ng/g weight and 4668.4 ng/g weight and 4232.8 ng/g weight and 7201.5 ng/g weight and 6740.2 ng/g weight and 5287.1 ng/g weight | La^3+ bound to HAP ([5]; first 15 minutes): greater than 80% | EC50 (MG-63 cells): > 100 µM | pM (= –log[La^3+]) [6]: 5.8 | log βML3 [6, 9]: 17.44

Further lines, with some results ahead:

apparent K a (pH 5) ([2]; 37 °C, pH 5 (100 mM piperazine), one-site bimolecular–bimolecular model): 1.9 (±0.4) × 10^2 M^–1 | K (one-site fit) ([2]; 37 °C, pH 7.4 (100mM HEPES), 30.4mM H5XT into 1.1 mM HAP, Fig. S2): 6.61E3±1.33E3
Structure (SMILES): O=C(O)CN(CC(=O)O)CP(=O)(O)CN(CC(=O)O)CC(=O)O [H5XT, bis[[bis(carboxymethyl)amino]-methyl]phosphinate]

interaction of ligand alone with HAP ([2]; pH 5, absence of La^3+): do not see any evidence of interaction | binding of ligand alone to HAP ([2]; pH 7.4, absence of La^3+): no binding is observed
Structure (SMILES): Cc1c(O)c(=O)ccn1C [Hdpp, 3-hydroxy-1,2-dimethylpyridin-4(1H)-one]

plasma levels after 5 days of treatment [3]: 5999 ± 302 ng g^–1 | La^3+ concentration in brain [3]: 112 ± 84 ng g^–1 | La^3+ concentration in heart [3]: 768 ± 115 ng g^–1 | La^3+ concentration in kidney [3]: 1320 ± 157 ng g^–1 | La^3+ concentration in spleen [3]: 3854 ± 827 ng g^–1 | plasma concentration, t=end, mean [3]: 5998.7 ng/g weight | bone distribution of lanthanum compared to La(dpp)3 [4]: slightly greater | La^3+ bound to HAP ([5]; after 4 h): less than 20%
Structure (SMILES): O=C([O-])CN(CC(=O)[O-])CP(=O)(O)CN(CC(=O)[O-])CC(=O)[O-].[La+3] [La(XT)]
plasma concentration, t=end, single animals [3]: 5843.4 ng/g weight and 6432.4 ng/g weight and 5776.8 ng/g weight and 6337.3 ng/g weight and 5782.3 ng/g weight and 5819.9 ng/g weight | pM (= –log[La^3+]) [6]: 12.0 | log βML [6, 9]: 13.0(3)
